According to publication PMC7663263 (Molecules, 2020):
Like-named read-outs stand apart in the source and are kept apart here.

How the values were obtained:
S. mansoni TGR [1] = target: T1, S. mansoni TGR (Schistosoma mansoni, UniProt Q962Y6); design: method as in PMID 17579510; conditions: 20 nM enzyme, 100 µM GSSG; after 15 min preincubation; read-out: IC50 S. mansoni TGR, substrate GSSG; cited from earlier work
T1 construct: made in house; host or cells: E. coli
T1 sequence (Q962Y6 1-598): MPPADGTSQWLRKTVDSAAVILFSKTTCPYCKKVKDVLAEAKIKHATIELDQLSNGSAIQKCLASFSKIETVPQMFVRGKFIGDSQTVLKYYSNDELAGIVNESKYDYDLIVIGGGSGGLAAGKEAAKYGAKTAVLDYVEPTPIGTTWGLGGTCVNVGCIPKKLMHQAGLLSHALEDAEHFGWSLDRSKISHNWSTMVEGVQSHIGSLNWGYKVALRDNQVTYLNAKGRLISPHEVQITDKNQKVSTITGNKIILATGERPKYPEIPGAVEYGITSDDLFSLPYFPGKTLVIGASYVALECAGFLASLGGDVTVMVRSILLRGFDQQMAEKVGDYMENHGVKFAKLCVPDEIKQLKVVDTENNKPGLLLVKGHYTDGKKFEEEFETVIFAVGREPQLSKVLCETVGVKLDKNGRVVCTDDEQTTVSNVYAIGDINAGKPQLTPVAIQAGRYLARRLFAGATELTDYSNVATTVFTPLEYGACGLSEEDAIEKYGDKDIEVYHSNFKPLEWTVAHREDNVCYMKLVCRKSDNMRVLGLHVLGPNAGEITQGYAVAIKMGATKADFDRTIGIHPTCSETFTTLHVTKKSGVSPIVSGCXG

mitochondrial TrxR2 = system: mitochondrial TrxR2; design: method as in PMID 15458826; conditions: 2 nM enzyme, 3 mM DTNB; steady state; read-out: IC50 TrxR, substrate DTNB (mitochondrial TrxR2 instead of cytosolic TrxR1); cited from earlier work
S. mansoni TGR [2] = target: T1, S. mansoni TGR; design: method as in PMID 17579510; conditions: 20 nM enzyme, 3 mM DTNB; after 15 min preincubation; read-out: IC50 S. mansoni TGR, substrate DTNB; cited from earlier work
S. mansoni TGR [3] = target: T1, S. mansoni TGR; design: method as in PMID 17579510; conditions: 20 nM enzyme, 8 mM substrate; after 15 min preincubation; read-out: IC50 S. mansoni TGR, substrate HED + GSSG; cited from earlier work
L. infantum TR = conditions: read-out: Ki L. infantum TR, substrate TS2; 40 nM enzyme, 50–400 µM TS2; steady state; cited from earlier work
S. mansoni = system: S. mansoni; design: method as in PMID 17579510; conditions: after multiple doses; cited from earlier work
Human TrxR [4] = conditions: 2 nM enzyme, 3 mM DTNB; steady state kinetic studies; read-out: IC50 Human TrxR, substrate DTNB; cited from earlier work
Human TrxR [5] = target: Human TrxR; design: method as in PMID 9685351; conditions: 1.7 nM enzyme, steady state kinetic studies, read-out: Ki Human TrxR, substrate E. coli TrxS2, cited from earlier work
Human GR = conditions: 1.5 nM enzyme, 1 mM GSSG; steady state kinetic studies; read-out: IC50 Human GR, substrate GSSG; cited from earlier work
L. major = conditions: read-out: IC50 against L. major; cited from earlier work
B. pahangi TrxR = B. pahangi TrxR enzyme assay, DTNB reduction (original data); format: biochemical, Brugia pahangi; conditions: 20 nM enzyme, 3 mM DTNB; after 15 min preincubation; read-out: IC50 B. pahangi TrxR, substrate DTNB (original data)
Protocol: Enzymes were prepared in E. coli as described. Assays were performed at 25 °C in 0.1 M potassium phosphate (pH 7.4), 10 mM EDTA using 100 μM NADPH and 3 mM dithiobis(2-nitrobenzoic acid) (DTNB). […] The increase in A412 during the first 3 min was recorded upon DTNB addition. The reaction was done in triplicate.

[6] = target: human thioredoxin reductase (TrxR); design: method as in PMID 9685351; conditions: cited from earlier work
L. amazonensis = conditions: read-out: IC50 against L. amazonensis; cited from earlier work

| Structure (SMILES) | IC50 (S. mansoni TGR [1]) | IC50 (mitochondrial TrxR2) | IC50 (S. mansoni TGR [2]) | IC50 (S. mansoni TGR [3]) | Ki (L. infantum TR) | reduction of worm burdens in S. mansoni infected mice (S. mansoni) | IC50 (Human TrxR [4]) | Ki (Human TrxR [5]; at 50 TrxS2) | Ki (Human TrxR [5]; at 75 TrxS2) | IC50 (Human GR) | IC50 (L. major) | IC50 (B. pahangi TrxR) | Ki [6] | IC50 (L. amazonensis) |
| --- | --- | --- | --- | --- | --- | --- | --- | --- | --- | --- | --- | --- | --- | --- |
| O=C(O)CC([S-])C(=O)O.[Au+] (centres unmarked) [Aurothiomalate] | 50 nM | 280 nM | 90 nM | 50 nM |  |  |  |  |  |  |  |  |  |  |
| CC(=O)OC[C@H]1O[C@@H]([S-])[C@H](OC(C)=O)[C@@H](OC(C)=O)[C@@H]1OC(C)=O.CCP(CC)CC.[Au+] [Auranofin] |  |  |  |  | 155 nM | ~ 60% | 20 nM | 2 nM | 3 nM | 40000 nM | 70 nM | 0.5 nM | 4 nM | 270 nM |
